Legend:
[1] = Freezing point depression of DMSO solutions by DSC; type: physicochemical; settings: DSC scan
Method: Using PerkinElmer Instruments PYRIS Diamond Differential Scanning calorimetry (“DSC”), samples were cooled to −40° C. and heated to 40° C. at 8° C. per minute for screening purposes.

[2] = Effect of pH on insulin solubility in DMSO (visual, A630); type: physicochemical; settings: pH memory of 7, some lower-concentration solutions e.g. 10 mg/mL
Method: These solutions were lyophilized to dryness ([…]) using a conservative cycle and reconstituted to various nominal concentrations in DMSO. Solubility was measured by visual inspection for clarity and turbidity via A630.

## C[S+](C)[O-] [neat DMSO, dimethylsulfoxide]
[1]
  temperature of crystallization (Tc): ~18 °C

## insulin
[2]
  period to slowly dissolve to a clear solution: about 24 hours
